Measurements as given in PubChem BioAssay AID1963875 (Molecular Pharmacology Branch, DTP, NCI, 2024).

Test system: KRAS-mutant PDC complex spheroid viability
Assay: Anticancer human tumor 186277-243-T-J2-PDC patient-derived colon adenocarcinoma cell line growth inhibition [KRAS2]
Settings: for IC50: curve of first compound; for viability, T/C: stronger effect = lower value
Text: Multicellular complex tumor spheroid response to RAS pathway inhibitors in combination with a targeted agents in patient-derived cell lines with oncogenic KRAS variants from multiple cancer types
A high-throughput screen of multi-cell type tumor spheroids was designed to identify active combinations of targeted small molecules and KRAS pathway inhibitors. Complex spheroids include a stromal component modeled by human endothelial cells (HUVEC) and fibroblasts modeled by human mesenchymal stem cells (MSCs). The concentration ranges selected for each drug and investigational agent were based upon clinically achievable concentrations if the clinical Cmax of the agent was known.
Compounds. The drugs and investigational agents: BI-3406 (NSC825286), BAY-293 (NSC824723), batoprotafib (TNO155; NSC825523), sotorasib (AMG 510; NSC818433), MRTX1257 (NSC819558), elimusertib (BAY 1895344; NSC800525), molibresib (GSK525762; NSC774829), temuterkib (LY3214996; NSC803410), venetoclax (NSC766270), alisertib (NSC759677), olaparib (NSC753686), talazoparib (NSC767125), erdafitinib (NSC781556), ipatasertib (NSC767898), cabozantinib (NSC761068), nintedanib (NSC756659), abemaciclib (NSC768073), docetaxel (NSC628503), trametinib (NSC758246), and sapanisertib (NSC764658) were obtained from the National Cancer Institute (NCI) Developmental Therapeutics Program Chemical Repository. The FDA-approved anticancer drug set is available from the Developmental Therapeutics Program. […] The stock solutions were prepared in dimethyl sulfoxide (DMSO, Sigma-Aldrich, St. Louis, MO, cat. D2650) at 800-fold the tested concentration and stored at -70 degrees C prior to their use. All drugs and investigational agents were tested over a range starting from a high concentration at or near the clinical Cmax and decreasing in half-log increments. If the clinical Cmax for an agent had not been determined, the highest concentration tested was 10 microM.
Cell Culture. All cells were maintained in an incubator at 37 degrees C and 5% CO2 with 95% humidity. The PDC lines were cultured according to standard operating procedures established by the NCI PDMR (https://pdmr.cancer.gov/sops/default.htm). Briefly, all PDCs were thawed and cultured in Matrigel-coated flasks prepared with a working solution of 1X Ham's F-12 nutrient mix, without supplementation (Invitrogen, Waltham, MA, cat. 11765054), 100 U/mL penicillin-streptomycin (Invitrogen, cat. 15140122), and 2.5% Matrigel (Corning Inc., Corning, NY, cat. 354248) for the first three passages. All PDCs were cultured in complete DMEM/F-12 media containing advanced DMEM/F-12 (Invitrogen, cat. 12634028), 4.9% defined fetal bovine serum, heat inactivated (HyClone Laboratories Inc., Logan, UT, cat. SH30070.03HI), 389 ng/mL hydrocortisone (Sigma-Aldrich, cat. H4001), 9.7 ng/mL human EGF recombinant protein (Invitrogen, cat. PHG0313), 23.4 microg/mL adenine (Sigma-Aldrich, cat. A2786), 97.3 U/mL penicillin-streptomycin (Invitrogen, cat. 15140122), 1.9 mM L-glutamine (Invitrogen, cat. 25030081), and 9.7 microM Y-27632 dihydrochloride (Tocris Bioscience, Bristol, United Kingdom, cat. 1254). The PDCs were cultured in complete DMEM/F12 media without 9.7 microM Y-27632 dihydrochloride for at least two passages prior to the screen. The established cell line HOP-62 was cultured in RPMI 1640 medium, HEPES (Invitrogen, cat. 22400105) with 10% defined fetal bovine serum (HyClone Laboratories Inc., cat. SH30070.03) and 2 mM L-glutamine (Invitrogen, cat. 25030081). The pooled donor HUVEC were cultured in endothelial cell growth medium 2 (PromoCell, Heidelberg, Germany, cat. C-22011) and the hMSC were cultured in mesenchymal stem cell growth medium 2 (PromoCell, cat. C-28009). For all experiments, HUVEC and hMSC were used at passages </=5, while the malignant cell lines were used at passages </=15. […]
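For viability, T/C in this document: viability read after seven days of compound exposure; 100% = DMSO vehicle-treated spheroids so lower means less viable.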

CC(=O)Nc1cccc(-n2c(=O)n(C3CC3)c(=O)c3c(Nc4ccc(I)cc4F)n(C)c(=O)c(C)c32)c1 + C=CC(=O)N1CCN(c2nc(=O)n(-c3c(C)ccnc3C(C)C)c3nc(-c4c(O)cccc4F)c(F)cc23)C(C)C1
IC50 (second compound 0.1 µM): 0.625 nM | IC50 (second compound 0.316 µM): 0.659 nM | IC50 (second compound 1 µM): 0.583 nM | IC50 (second compound 3.16 µM): 0.444 nM | IC50 (second compound 10 µM): 0.11 nM | viability, T/C (second compound 0.1 µM, first compound 0.0001 µM): 99.2% | viability, T/C (second compound 0.1 µM, first compound 0.000316 µM): 96.3% | viability, T/C (second compound 0.1 µM, first compound 0.001 µM): 18% | viability, T/C (second compound 0.1 µM, first compound 0.00316 µM): 8.67% | viability, T/C (second compound 0.1 µM, first compound 0.01 µM): 2.97% | viability, T/C (second compound 0.1 µM, first compound 0.0316 µM): 1.31% | viability, T/C (second compound 0.316 µM, first compound 0.0001 µM): 100% | viability, T/C (second compound 0.316 µM, first compound 0.000316 µM): 99.7% | viability, T/C (second compound 0.316 µM, first compound 0.001 µM): 21.9% | viability, T/C (second compound 0.316 µM, first compound 0.00316 µM): 9% | viability, T/C (second compound 0.316 µM, first compound 0.01 µM): 3.1% | viability, T/C (second compound 0.316 µM, first compound 0.0316 µM): 1.46% | viability, T/C (second compound 1 µM, first compound 0.0001 µM): 111% | viability, T/C (second compound 1 µM, first compound 0.000316 µM): 86.7% | viability, T/C (second compound 1 µM, first compound 0.001 µM): 17.4% | viability, T/C (second compound 1 µM, first compound 0.00316 µM): 7.6% | viability, T/C (second compound 1 µM, first compound 0.01 µM): 4.82% | viability, T/C (second compound 1 µM, first compound 0.0316 µM): 1.76% | viability, T/C (second compound 3.16 µM, first compound 0.0001 µM): 90.9% | viability, T/C (second compound 3.16 µM, first compound 0.000316 µM): 65.8% | viability, T/C (second compound 3.16 µM, first compound 0.001 µM): 11.9% | viability, T/C (second compound 3.16 µM, first compound 0.00316 µM): 9.32% | viability, T/C (second compound 3.16 µM, first compound 0.01 µM): 2.47% | viability, T/C (second compound 3.16 µM, first compound 0.0316 µM): 1.47% | viability, T/C (second compound 10 µM, first compound 0.0001 µM): 53.6% | viability, T/C (second compound 10 µM, first compound 0.000316 µM): 9.73% | viability, T/C (second compound 10 µM, first compound 0.001 µM): 3.83% | viability, T/C (second compound 10 µM, first compound 0.00316 µM): 4.23% | viability, T/C (second compound 10 µM, first compound 0.01 µM): 0.78% | viability, T/C (second compound 10 µM, first compound 0.0316 µM): 0.43%
